Test results reported in patent publication US11000033B2, “Ketone or oxime compound, and herbicide” (NISSAN CHEMICAL CORPORATION, priority 2014, dated 2021).

Experiments:
Assay type in all cases: in vivo
[1] = test system: Echinochloa oryzacola Vasing.; test: Test Example 1: herbicidal activity, application before weed generation in submerged conditions (symbol A); conditions: application herbicide amount 320 g/ha
In short: (§1)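 Weeds are sown into submerged alluvial soil alongside transplanted 2.5-leaf rice, and the compound, as an emulsion diluted to a set rate, is applied onto the water before emergence. Rating on the 0–5 herbicidal-ratio scale follows 3 weeks of greenhouse growth at 25–30 °C.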

Scirpus juncoides = test: Test Example 1: herbicidal activity, application before weed generation in submerged conditions (symbol B); conditions: application herbicide amount 320 g/ha
In short: as §1

Monochoria vaginalis = test: Test Example 1: herbicidal activity, application before weed generation in submerged conditions (symbol C); conditions: application herbicide amount 320 g/ha
Excerpt: Herbicidal Activity Test by Application Before Weed Generation in Submerged Conditions
After alluvial soil was placed into 1/10000 are of Wagner pot, water was poured and mixed to form a submerged condition having a water depth of 4 cm. Seeds of Echinochloa oryzacola Vasing., Scirpus juncoides, and Monochoria vaginalis were sowed in a mixed manner in the above pot and thereafter 2.5 leaf stage rice plant seedlings were transplanted thereto. On the day of sowing seeds, the emulsion agent of the compound of the present invention prepared in accordance with Formulation Example 2 was diluted with water so as to be a predetermined herbicide amount and the diluted emulsion agent was applied to the surface of the water. The pot was placed in a greenhouse of 25° C. to 30° C. to grow plant. 3 weeks later from the herbicide application, the effect to each plant was investigated in accordance with the following criteria.
5 Herbicidal ratio of 90% or more (almost completely withered)
4 Herbicidal ratio of 70% or higher and lower than 90%
3 Herbicidal ratio of 40% or higher and lower than 70%
2 Herbicidal ratio of 20% or higher and lower than 40%
1 Herbicidal ratio of 5% or higher and lower than 20%
0 Herbicidal ratio of 5% or lower (almost no effect)

transplanted rice plant = test: Test Example 1: effect on crop, application before weed generation in submerged conditions (symbol a); conditions: application herbicide amount 320 g/ha
In short: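 Alluvial soil pots flooded to 4 cm water, sown with Echinochloa oryzacola, Scirpus juncoides and Monochoria vaginalis, then transplanted with 2.5 leaf stage rice seedlings; pre-emergence application. Greenhouse 25° C. to 30° C.; scored 0–5 by herbicidal ratio 3 weeks after application.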

[2] = test system: Echinochloa crus-galli var. crus-galli; test: Test Example 3: herbicidal effect by foliage application, Wagner pot (symbol H); conditions: application herbicide amount 320 g/ha
In short: (§2)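 Steps: fill pot with alluvial soil; add water to 0.1–0.5 cm depth; sow weed and rice seed; grow 14 days at 25–30 °C; spray diluted emulsion over the leaves; rate effect after 3 weeks.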

Leptochloa chinensis = test: Test Example 3: herbicidal effect by foliage application, Wagner pot (symbol D); conditions: application herbicide amount 320 g/ha
In short: as §2

Cyperus difformis = test: Test Example 3: herbicidal effect by foliage application, Wagner pot (symbol E); conditions: application herbicide amount 320 g/ha
In short: as §2

[3] = test system: directly sowed rice plant; test: Test Example 3: effect on crop by foliage application, Wagner pot (symbol b); conditions: application herbicide amount 320 g/ha
In short: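 Greenhouse culture at 25–30 °C of seeded rice, Cyperus difformis, Leptochloa chinensis and Echinochloa crus-galli var. crus-galli, in alluvial soil held under 0.1–0.5 cm of water in a Wagner pot.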

Digitaria ciliaris = test: Test Example 5: herbicidal effect by foliage application, plastic box (symbol F); conditions: 320 g/ha, 3 weeks after application
In short: (§3)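 After sowing into sterilized diluvial soil and growing two weeks under glass at 25° C. to 30° C., seedlings receive a uniform foliar spray of diluted emulsion. Damage is judged visually three weeks on.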

Setaria viridis = test: Test Example 5: herbicidal effect by foliage application, plastic box (symbol G); conditions: 320 g/ha, 3 weeks after application
In short: as §3

[4] = test system: Echinochloa crus-galli var. crus-galli; test: Test Example 5: herbicidal effect by foliage application, plastic box (symbol H); conditions: 320 g/ha, 3 weeks after application
In short: as §3

Avena fatua = test: Test Example 5: herbicidal effect by foliage application, plastic box (symbol I); conditions: 320 g/ha, 3 weeks after application
In short: as §3

Alopecurus myosuroides = test: Test Example 5: herbicidal effect by foliage application, plastic box (symbol J); conditions: 320 g/ha, 3 weeks after application
In short: as §3

Lolium multiflorum Lam. = test: Test Example 5: herbicidal effect by foliage application, plastic box (symbol K); conditions: 320 g/ha, 3 weeks after application
In short: as §3

Apera spica-venti = test: Test Example 5: herbicidal effect by foliage application, plastic box (symbol L); conditions: 320 g/ha, 3 weeks after application
In short: as §3

Abutilon theophrasti = test: Test Example 5: herbicidal effect by foliage application, plastic box (symbol M); conditions: 320 g/ha, 3 weeks after application
In short: as §3

Amaranthus retroflexus = test: Test Example 5: herbicidal effect by foliage application, plastic box (symbol N); conditions: 320 g/ha, 3 weeks after application
In short: as §3

Chenopodium album = test: Test Example 5: herbicidal effect by foliage application, plastic box (symbol O); conditions: 320 g/ha, 3 weeks after application
In short: as §3

Stellaria media = test: Test Example 5: herbicidal effect by foliage application, plastic box (symbol P); conditions: 320 g/ha, 3 weeks after application
In short: as §3

Galium spurium = test: Test Example 5: herbicidal effect by foliage application, plastic box (symbol Q); conditions: 320 g/ha, 3 weeks after application
In short: as §3

Veronica persica = test: Test Example 5: herbicidal effect by foliage application, plastic box (symbol R); conditions: 320 g/ha, 3 weeks after application
In short: as §3

corn = test: Test Example 5: effect on crop by foliage application, plastic box (symbol c); conditions: 320 g/ha, 3 weeks after application
In short: (§4)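 In a plastic box 7 cm deep filled with sterilized diluvial soil, seeds of crops and weeds such as Digitaria ciliaris, Avena fatua and Amaranthus retroflexus are sown in spots and covered with about 1.5 cm of soil before greenhouse growth at 25–30° C.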

soybean = test: Test Example 5: effect on crop by foliage application, plastic box (symbol d); conditions: 320 g/ha, 3 weeks after application
In short: as §4

rice plant = test: Test Example 5: effect on crop by foliage application, plastic box (symbol b); conditions: 320 g/ha, 3 weeks after application
In short: as §4

wheat = test: Test Example 5: effect on crop by foliage application, plastic box (symbol e); conditions: 320 g/ha, 3 weeks after application
In short: as §4

beet = test: Test Example 5: effect on crop by foliage application, plastic box (symbol f); conditions: 320 g/ha, 3 weeks after application
In short: as §4

rapeseed = test: Test Example 5: effect on crop by foliage application, plastic box (symbol g); conditions: 320 g/ha, 3 weeks after application
In short: as §4

Compound	Herbicidal effect grade, A: Echinochloa oryzacola Vasing. [1]	Herbicidal effect grade, B: Scirpus juncoides (Scirpus juncoides)	Herbicidal effect grade, C: Monochoria vaginalis (Monochoria vaginalis)	Effect grade on crop, a: transplanted rice plant (transplanted rice plant)	F: Digitaria ciliaris, herbicidal effect (criteria of Test Example 1) (Digitaria ciliaris)	G: Setaria viridis, herbicidal effect (criteria of Test Example 1) (Setaria viridis)	H: Echinochloa crus-galli var. crus-galli, herbicidal effect (criteria of Test Example 1) [4]	I: Avena fatua, herbicidal effect (criteria of Test Example 1) (Avena fatua)	J: Alopecurus myosuroides, herbicidal effect (criteria of Test Example 1) (Alopecurus myosuroides)	K: Lolium multiflorum Lam., herbicidal effect (criteria of Test Example 1) (Lolium multiflorum Lam.)	L: Apera spica-venti, herbicidal effect (criteria of Test Example 1) (Apera spica-venti)	M: Abutilon theophrasti, herbicidal effect (criteria of Test Example 1) (Abutilon theophrasti)	N: Amaranthus retroflexus, herbicidal effect (criteria of Test Example 1) (Amaranthus retroflexus)	O: Chenopodium album, herbicidal effect (criteria of Test Example 1) (Chenopodium album)	P: Stellaria media, herbicidal effect (criteria of Test Example 1) (Stellaria media)	Q: Galium spurium, herbicidal effect (criteria of Test Example 1) (Galium spurium)	R: Veronica persica, herbicidal effect (criteria of Test Example 1) (Veronica persica)	c: corn, effect on crop (criteria of Test Example 1) (corn)	d: soybean, effect on crop (criteria of Test Example 1) (soybean)	b: directly sowed rice plant, effect on crop (criteria of Test Example 1) (rice plant)	further results
CCCC=Cc1cc(C)c(C2=C(O)CC(CC(C)=O)C2=O)c(C)c1 (stereo not drawn) [7-022]	4 (Herbicidal ratio of 70% or higher and lower than 90%)	2 (Herbicidal ratio of 20% or higher and lower than 40%)	3 (Herbicidal ratio of 40% or higher and lower than 70%)	3 (Herbicidal ratio of 40% or higher and lower than 70%)	0 (Herbicidal ratio of 5% or lower (almost no effect))	0 (Herbicidal ratio of 5% or lower (almost no effect))	1 (Herbicidal ratio of 5% or higher and lower than 20%)	0 (Herbicidal ratio of 5% or lower (almost no effect))	0 (Herbicidal ratio of 5% or lower (almost no effect))	2 (Herbicidal ratio of 20% or higher and lower than 40%)	0 (Herbicidal ratio of 5% or lower (almost no effect))	0 (Herbicidal ratio of 5% or lower (almost no effect))	0 (Herbicidal ratio of 5% or lower (almost no effect))	0 (Herbicidal ratio of 5% or lower (almost no effect))	0 (Herbicidal ratio of 5% or lower (almost no effect))	0 (Herbicidal ratio of 5% or lower (almost no effect))	0 (Herbicidal ratio of 5% or lower (almost no effect))	0 (Herbicidal ratio of 5% or lower (almost no effect))	0 (Herbicidal ratio of 5% or lower (almost no effect))	0 (Herbicidal ratio of 5% or lower (almost no effect))	herbicidal effect on H (Echinochloa crus-galli var. crus-galli), grade 0-5 [2]: 0 (Herbicidal ratio of 5% or lower (almost no effect)); herbicidal effect on D (Leptochloa chinensis), grade 0-5 (Leptochloa chinensis): 4 (Herbicidal ratio of 70% or higher and lower than 90%); herbicidal effect on E, grade 0-5 (Cyperus difformis): 0 (Herbicidal ratio of 5% or lower (almost no effect)); effect on crop b (directly sowed rice plant), grade 0-5 [3]: 0 (Herbicidal ratio of 5% or lower (almost no effect)); e: wheat, effect on crop (criteria of Test Example 1) (wheat): 0 (Herbicidal ratio of 5% or lower (almost no effect)); f: beet, effect on crop (criteria of Test Example 1) (beet): 0 (Herbicidal ratio of 5% or lower (almost no effect)); g: rapeseed, effect on crop (criteria of Test Example 1) (rapeseed): 0 (Herbicidal ratio of 5% or lower (almost no effect))
CC(=O)CC1CC(O)=C(c2c(C)cc(-n3cncn3)cc2C)C1=O (stereo not drawn) [7-026]	3 (Herbicidal ratio of 40% or higher and lower than 70%)	0 (Herbicidal ratio of 5% or lower (almost no effect))	0 (Herbicidal ratio of 5% or lower (almost no effect))	0 (Herbicidal ratio of 5% or lower (almost no effect))	0 (Herbicidal ratio of 5% or lower (almost no effect))	0 (Herbicidal ratio of 5% or lower (almost no effect))	1 (Herbicidal ratio of 5% or higher and lower than 20%)	0 (Herbicidal ratio of 5% or lower (almost no effect))	1 (Herbicidal ratio of 5% or higher and lower than 20%)	1 (Herbicidal ratio of 5% or higher and lower than 20%)	0 (Herbicidal ratio of 5% or lower (almost no effect))	0 (Herbicidal ratio of 5% or lower (almost no effect))	0 (Herbicidal ratio of 5% or lower (almost no effect))	0 (Herbicidal ratio of 5% or lower (almost no effect))	0 (Herbicidal ratio of 5% or lower (almost no effect))	0 (Herbicidal ratio of 5% or lower (almost no effect))	0 (Herbicidal ratio of 5% or lower (almost no effect))	0 (Herbicidal ratio of 5% or lower (almost no effect))	0 (Herbicidal ratio of 5% or lower (almost no effect))	0 (Herbicidal ratio of 5% or lower (almost no effect))	H (Echinochloa crus-galli var. crus-galli) herbicidal effect grade ([2]; Table 24): 0 (Herbicidal ratio of 5% or lower (almost no effect)); D (Leptochloa chinensis) herbicidal effect grade (Leptochloa chinensis; Table 24): 3 (Herbicidal ratio of 40% or higher and lower than 70%); E herbicidal effect grade (Cyperus difformis; Table 24): 0 (Herbicidal ratio of 5% or lower (almost no effect)); b (directly sowed rice plant) effect on crop grade ([3]; Table 24): 0 (Herbicidal ratio of 5% or lower (almost no effect)); e: wheat, effect on crop (criteria of Test Example 1) (wheat): 0 (Herbicidal ratio of 5% or lower (almost no effect)); f: beet, effect on crop (criteria of Test Example 1) (beet): 0 (Herbicidal ratio of 5% or lower (almost no effect)); g: rapeseed, effect on crop (criteria of Test Example 1) (rapeseed): 0 (Herbicidal ratio of 5% or lower (almost no effect))
